In PMC12081876, “Identification of PTGR2 inhibitors as a new therapeutic strategy for diabetes and obesity” (EMBO Molecular Medicine, 2025):
Where “and” joins values, the source holds several entries; their conditions need not be identical. Equal values may be shown once.

How the values were obtained:
[1] = tested on: HFHSD-fed obese C57BL6/J mice; test: Fasting glucose in HFHSD-fed mice; type: in vivo, mouse; parameters: Fasting glucose, Average / Fasting glucose (individual mouse): unit not given here; settings: for Fasting glucose, Average / Fasting glucose (individual mouse): Figure 5K; for Fasting glucose, Average: 100 mg/kg/day; for Fasting glucose (individual mouse): BPRPT0245 group
Protocol: Ptgr2^+/+ and Ptgr2^−/− mice were created by the Transgenic Mouse Model Core Facility of the National Core Facility for Biopharmaceuticals, Ministry of Science and Technology, Taiwan and the Animal Resources Laboratory of National Taiwan University Centers of Genomic and Precision Medicine. C57BL6/J mice were purchased from National Laboratory Animal Center. All animal experiments were performed according to institutional ethical guidelines and were approved by the Institutional Animal Care and Use Committee (IACUC) of National Taiwan University Medical College (IACUC No.: 20140456). All mice were housed under standard conditions at 23 °C and 12/12 h. light/dark (7 AM–7 PM) cycle in animal centers of the National Taiwan University Medical College, which is accredited by the Association for Assessment and Accreditation of Laboratory Animal Care International (AAALAC). Mice were provided shelters and sticks weekly. We used adequate anesthetic procedure to reduce pain, suffering and distress according to our animal center regulation. We reported expected or unexpected adverse events to the veterinarian of our animal center. The humane endpoints include 20% weight loss, rough hair coat, hunched posture, lethargy or persistent, or any condition interfering with eating or drinking. Eight-week-old male mice were fed on either a high-fat high-sucrose diet (HFHSD) (cat. no. D12331, Research Diets) or a regular chow diet (cat no. 5001, Lab Diet). BPRPT0245 was dissolved 3% dimethylacetamide and 10% cremophor in water and administered daily to HFHSD-fed obese C57BL6/J mice by oral gavage (100 mg/kg/day).

[2] = tested on: HFHSD-fed obese C57BL6/J mice; test: Hepatic steatosis (H&E) and hepatic triglycerides content; type: in vivo, mouse; settings: 100 mg/kg/day oral, vs vehicle
Protocol: Tissues were fixed in 4% paraformaldehyde and then embedded in paraffin before sectioning and staining. The stained sections were scanned and analyzed using a MIRAX viewer (http://www.zeiss.de/mirax) and Image J software (http://rsbwed.nih.gov/ij/).
Approximately 80 mg of liver tissue was homogenized in 1800 μl of chloroform/methanol (2/1). Then, 360 μl of H2O was added. The homogenates were centrifuged at 2000 rpm for 10 min. The lower 200-μl layer was added with 100 μl of chloroform with 4% Triton X-100 and dried in a chemical hood. The dried pellet was redissolved with 200 μl of H2O and was determined the triglyceride concentrations with Wako TG LabAssay kit (cat. no. 290-63701, Wako).

hPTGR2 = hPTGR2 (Homo sapiens, UniProt Q8N8N7); test: 15-keto-PGE2-dependent PPARγ trans-activation in PTGR2-transfected HEK293T cells; type: cell-based; parameters: expressed in transfected cells; host or cells: HEK293T; settings: for Figure 5C relative PPARγ trans-activation (replicates): (+) Ptgr2
Chain of hPTGR2 (Q8N8N7 whole entry): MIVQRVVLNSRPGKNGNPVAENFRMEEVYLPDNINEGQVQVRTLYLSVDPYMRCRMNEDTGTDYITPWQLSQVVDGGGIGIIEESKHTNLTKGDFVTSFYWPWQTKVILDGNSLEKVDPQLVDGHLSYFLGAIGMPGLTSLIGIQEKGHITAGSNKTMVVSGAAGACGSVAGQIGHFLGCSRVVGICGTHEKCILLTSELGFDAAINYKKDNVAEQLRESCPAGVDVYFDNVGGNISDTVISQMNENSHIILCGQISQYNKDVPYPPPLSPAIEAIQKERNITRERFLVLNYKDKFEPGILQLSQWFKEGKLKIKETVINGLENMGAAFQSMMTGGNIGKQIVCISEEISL
Source text: Based on these findings from the Ptgr2^−/− mice, we next searched for druggable chemical inhibitors that can effectively suppress human PTGR2 (hPTGR2) enzymatic activity. Using a high-throughput screening of 12,500 chemicals, we identified 31 hits and generated 282 derivatives using a molecular hybridization strategy among the hits. The in vitro IC50 (the half-maximal inhibitory concentration), EC50 (the concentration for half-maximal effect), and the compound’s activity to restore 15-keto-PGE2-dependent PPARγ trans-activation in HEK293T cells expressing recombinant PTGR2 were profiled.
Gal4-PPARγ/UAS-LUC reporter assay was conducted as previously described (Wu et al, [2008]) with minor modifications. Briefly, HEK293T cells were seeded in 24-well plates at 1 × 10^5 cells/well. After 24-h growth, a DNA solution containing UASG reporter construct, GAL4-PPAR expression plasmid, and TK-Rluc (Renilla luciferase) reporter construct (internal control) was transfected using TurboFect™ transfection reagent (cat. no. R0532, Thermo Fisher). Cells were treated and harvested after another 24 and 48 h, respectively. Luciferase activity was measured using Luc-Pair™ Duo-Luciferase HS Assay Kit (cat. no. LF600, Promega) and normalized with the TK reporter signal.

[3] = Serum ALT, total bilirubin, BUN and creatinine; type: in vivo, mouse; settings: 100 mg/kg/day, vs vehicle

| SMILES | Fasting glucose, Average ([1]; week 0) | Fasting glucose, Average ([1]; week 2) | Fasting glucose, Average ([1]; week 4) | Fasting glucose, Average ([1]; week 6) | Fasting glucose, Average ([1]; week 8) | Fasting glucose, Average ([1]; week 10) | Fasting glucose, Average ([1]; week 12) | Fasting glucose, Average ([1]; week 14) | Fasting glucose, Average ([1]; week 16) | Fasting glucose, Average ([1]; week 18) | Fasting glucose, Average ([1]; week 20) | Fasting glucose, Average ([1]; week 22) | Fasting glucose, Average ([1]; week 24) | further results |
| --- | --- | --- | --- | --- | --- | --- | --- | --- | --- | --- | --- | --- | --- | --- |
| Cc1[nH]c2nc(C(C)N3CCN(c4ccccc4)CC3)nn2c(=O)c1Cc1ccc(F)cc1 (stereo not shown) [BPRPT0245] | 172.4 | 215 | 172.4 | 168.6 | 182.6 | 183.2 | 184.933 | 181.467 | 186.667 | 173.933 | 159.8 | 158.933 | 164.4 | fasting plasma glucose ([1]; 100 mg/kg/day oral, HFHSD-fed mice, vs vehicle): lowered fasting plasma glucose; Fasting glucose (individual mouse) ([1]; week 0): 140 and 191 and 194 and 229 and 230 and 148 and 190 and 111 and 179; Fasting glucose (individual mouse) ([1]; week 2): 178 and 220 and 216 and 291 and 182 and 199 and 225 and 148; Fasting glucose (individual mouse) ([1]; week 4): 162 and 198 and 190 and 178 and 194 and 163 and 177; Fasting glucose (individual mouse) ([1]; week 6): 151 and 215 and 171 and 164 and 188 and 139 and 181; Fasting glucose (individual mouse) ([1]; week 8): 164 and 212 and 172 and 202 and 171 and 198 and 219; Fasting glucose (individual mouse) ([1]; week 10): 224 and 198 and 153 and 169 and 162 and 150 and 171; Fasting glucose (individual mouse) ([1]; week 12): 187 and 219 and 140 and 175 and 200 and 156 and 161 and 177; Fasting glucose (individual mouse) ([1]; week 14): 220 and 210 and 169 and 202 and 174 and 149 and 142; Fasting glucose (individual mouse) ([1]; week 16): 212 and 199 and 167 and 164 and 191 and 183 and 171; Fasting glucose (individual mouse) ([1]; week 18): 179 and 178 and 134 and 146 and 197 and 201 and 147 and 181 and 202; Fasting glucose (individual mouse) ([1]; week 20): 179 and 154 and 153 and 170 and 174 and 220 and 131 and 171 and 134; Fasting glucose (individual mouse) ([1]; week 22): 195 and 156 and 123 and 149 and 148 and 163 and 132 and 201 and 161; Fasting glucose (individual mouse) ([1]; week 24): 119 and 164 and 166 and 168 and 204 and 174; extent of hepatic steatosis [2]: significantly decreased; hepatic triglycerides content [2]: significantly decreased; EC50 (hPTGR2; restoring 15-keto-PGE2-dependent PPARγ trans-activation, HEK293T expressing recombinant PTGR2): 49.2 nM; serum ALT, total bilirubin, BUN and creatinine levels [3]: no differences |
| Cc1[nH]c2nc(C(C)N3CCN(c4ccccc4)CC3)nn2c(=O)c1Cc1ccc(F)cc1 (stereo not shown) [BPRPT245] | 172.4 | 215 | 172.4 | 168.6 | 182.6 | 183.2 | 184.933 | 181.467 | 186.667 | 173.933 | 159.8 | 158.933 | 164.4 | Figure 5C relative PPARγ trans-activation (replicates) (hPTGR2; 16nM): 0.5809 and 0.5894 and 0.6256 and 0.6099 and 0.5702; Figure 5C relative PPARγ trans-activation (replicates) (hPTGR2; 80nM): 0.8628 and 0.8769 and 0.8751 and 0.836 and 0.7826; Figure 5C relative PPARγ trans-activation (replicates) (hPTGR2; 400nM): 0.9481 and 0.8913 and 0.9158 and 0.7904 and 0.8206; Figure 5C relative PPARγ trans-activation (replicates) (hPTGR2; 2uM): 0.9154 and 0.9224 and 0.8575 and 0.8409 and 0.8698; Figure 5C relative PPARγ trans-activation (replicates) (hPTGR2; 10uM, (-) Ptgr2 about 1, (+) Ptgr2 alone 0.41-0.61): 0.9406 and 0.9982 and 0.9802 and 0.9197 and 0.9012 |
